From the Kinase Knowledgebase extract (Sharma et al. 2016)

target: PIK3CG (human) (UniProt P48736); test: Inhibition of PIK3CG Kinase Activity
Sequence (P48736 whole entry, looked up): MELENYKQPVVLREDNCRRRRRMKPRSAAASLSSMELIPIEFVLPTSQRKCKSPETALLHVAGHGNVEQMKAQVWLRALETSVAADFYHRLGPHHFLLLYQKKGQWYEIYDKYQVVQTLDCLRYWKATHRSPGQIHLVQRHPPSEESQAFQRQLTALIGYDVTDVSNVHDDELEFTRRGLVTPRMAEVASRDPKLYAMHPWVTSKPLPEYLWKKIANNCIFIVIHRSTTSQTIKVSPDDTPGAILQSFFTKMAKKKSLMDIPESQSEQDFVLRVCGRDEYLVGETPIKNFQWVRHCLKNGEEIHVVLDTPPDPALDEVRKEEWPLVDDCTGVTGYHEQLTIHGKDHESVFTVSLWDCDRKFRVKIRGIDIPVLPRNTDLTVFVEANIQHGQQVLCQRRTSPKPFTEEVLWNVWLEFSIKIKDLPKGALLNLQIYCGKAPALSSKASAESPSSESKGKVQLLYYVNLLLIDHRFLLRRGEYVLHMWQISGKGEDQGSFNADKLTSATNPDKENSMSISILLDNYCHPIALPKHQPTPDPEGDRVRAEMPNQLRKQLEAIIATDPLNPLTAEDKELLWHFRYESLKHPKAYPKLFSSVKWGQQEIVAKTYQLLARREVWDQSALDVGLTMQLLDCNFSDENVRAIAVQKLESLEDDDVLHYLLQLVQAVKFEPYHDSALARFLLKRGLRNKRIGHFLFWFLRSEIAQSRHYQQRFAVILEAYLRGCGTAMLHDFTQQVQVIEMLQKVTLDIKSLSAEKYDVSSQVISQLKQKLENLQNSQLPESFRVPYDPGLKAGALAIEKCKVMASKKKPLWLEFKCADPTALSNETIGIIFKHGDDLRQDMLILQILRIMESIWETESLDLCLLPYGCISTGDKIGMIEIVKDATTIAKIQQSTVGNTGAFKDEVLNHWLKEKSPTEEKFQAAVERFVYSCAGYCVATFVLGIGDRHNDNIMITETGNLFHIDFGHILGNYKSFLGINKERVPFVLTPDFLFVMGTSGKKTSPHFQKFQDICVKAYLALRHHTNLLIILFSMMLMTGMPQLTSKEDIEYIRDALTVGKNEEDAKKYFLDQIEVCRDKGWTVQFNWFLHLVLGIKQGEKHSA

| IC50 | SMILES |
| --- | --- |
| 185 nM | COc1ccc2oc(C(=O)Nc3nnn[nH]3)c(OCC3CC=CCC3C)c2c1 (centres undefined) |
| 1180 nM | COc1ccc2oc(C(=O)Nc3nnn[nH]3)c(OC3CCOCC3)c2c1 |
| 400 nM | COc1ccc2oc(C(=O)Nc3nnn[nH]3)c(OC3CCC3)c2c1 |
| 370 nM | COc1ccc2oc(C(=O)Nc3nnn[nH]3)c(OC3CC(C)CCC3C)c2c1 (centres undefined) |
| 220 nM | COc1ccc2oc(C(=O)Nc3nnn[nH]3)c(OCC3(C)CC3)c2c1 |
| 3640 nM | COc1ccc2oc(C(=O)Nc3nnn[nH]3)c(OCC3(C)COC3)c2c1 |
| 315 nM | COc1ccc2oc(C(=O)Nc3nnn[nH]3)c(OCC3CC=CCC3)c2c1 (centres undefined) |
| 175 nM | COc1ccc2oc(C(=O)Nc3nnn[nH]3)c(OCC3CCC3)c2c1 |
| 380 nM | COc1ccc2oc(C(=O)Nc3nnn[nH]3)c(OC3CCC(C4CCCCC4)CC3)c2c1 (centres undefined) |
| 255 nM | COc1ccc2oc(C(=O)Nc3nnn[nH]3)c(OC3CCCCC3)c2c1 |
| 108 nM | COc1ccc2oc(C(=O)Nc3nnn[nH]3)c(OCC3CCCCCC3)c2c1 |
| 150 nM | COc1ccc2oc(C(=O)Nc3nnn[nH]3)c(OC(C)C3CCCC3)c2c1 (centres undefined) |
| 305 nM | CCC(Oc1c(C(=O)Nc2nnn[nH]2)oc2ccc(OC)cc12)C1CCCCC1 (centres undefined) |
| 160 nM | COc1ccc2oc(C(=O)Nc3nnn[nH]3)c(OCC3CCCC3)c2c1 |
| 1460 nM | CC1(OCOc2c(C(=O)Nc3nnn[nH]3)oc3ccc(Cl)cc23)CC1 |
| 67 nM | COc1ccc2oc(C(=O)Nc3nnn[nH]3)c(OCC3C4CCC(C4)C3C)c2c1 (centres undefined) |
| 1050 nM | COc1ccc2oc(C(=O)Nc3nnn[nH]3)c(OC3CCCC3)c2c1 |
| 325 nM | COc1ccc2oc(C(=O)Nc3nnn[nH]3)c(OC3CCC4CCCCC4C3)c2c1 (centres undefined) |
| 335 nM | COc1ccc2oc(C(=O)Nc3nnn[nH]3)c(OC3CC4CCC3C4)c2c1 (centres undefined) |
| 41 nM | COc1ccc2oc(C(=O)Nc3nnn[nH]3)c(OC3CC(C)CC(C)C3)c2c1 (centres undefined) |
| 840 nM | COc1ccc2oc(C(=O)Nc3nnn[nH]3)c(OCC3CCCCC3)c2c1 |
| 290 nM | COc1ccc2oc(C(=O)Nc3nnn[nH]3)c(OC3CC(C)CC3C)c2c1 (centres undefined) |
| 1460 nM | COc1ccc2oc(C(=O)Nc3nnn[nH]3)c(OC(C)C3CC3)c2c1 (centres undefined) |
| 1460 nM | CCC1(COc2c(C(=O)Nc3nnn[nH]3)oc3ccc(OC)cc23)COC1 |
| 690 nM | COc1ccc2oc(C(=O)Nc3nnn[nH]3)c(OCC3CC3)c2c1 |
| 97 nM | COc1ccc2oc(C(=O)Nc3nnn[nH]3)c(OC3CCCCCC3)c2c1 |
| 3320 nM | O=C(Nc1nnn[nH]1)c1oc2ccc(Cl)cc2c1OC1CCCC1 |
| 185 nM | COc1ccc2oc(C(=O)Nc3nnn[nH]3)c(OC3CCCCCCC3)c2c1 |

| SMILES | IC50 |
| --- | --- |
| COc1ccc2oc(C(=O)Nc3nnn[nH]3)c(OC3CCC(C)C(C)C3)c2c1 (centres undefined) | 76 nM |
